# Counter-ions that a name gives are not always drawn.
# Tests used:
# [1] = target: T1, EAAT4 (JumpIn-EAAT4 cells) (Homo sapiens, UniProt P48664); experiment: Impedance-based phenotypic assay on JumpIn-EAAT4 cells; assay type: cell-based; conditions: JumpIn-EAAT4, 1 mM L-glu, p = 0.093
# T1 construct: expressed in transfected cells; host or cells: Jump In T-REx HEK 293
# T1 sequence (P48664 1-564): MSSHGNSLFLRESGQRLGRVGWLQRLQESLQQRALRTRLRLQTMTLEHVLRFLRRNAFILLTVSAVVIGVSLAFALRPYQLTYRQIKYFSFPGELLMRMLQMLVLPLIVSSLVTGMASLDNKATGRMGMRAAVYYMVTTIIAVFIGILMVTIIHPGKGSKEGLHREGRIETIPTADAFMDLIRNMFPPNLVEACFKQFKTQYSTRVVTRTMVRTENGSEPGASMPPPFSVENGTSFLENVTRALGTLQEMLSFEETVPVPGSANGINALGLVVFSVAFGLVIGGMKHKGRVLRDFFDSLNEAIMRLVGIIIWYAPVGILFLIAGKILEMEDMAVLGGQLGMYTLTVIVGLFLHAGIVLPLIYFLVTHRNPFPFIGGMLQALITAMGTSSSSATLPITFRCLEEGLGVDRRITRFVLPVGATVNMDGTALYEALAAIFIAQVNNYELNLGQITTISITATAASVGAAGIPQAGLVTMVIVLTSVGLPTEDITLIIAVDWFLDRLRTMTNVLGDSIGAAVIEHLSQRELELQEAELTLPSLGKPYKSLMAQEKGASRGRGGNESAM
# Method: Label-free whole-cell assays, based on cell-induced changes in impedance, were performed using the xCELLigence real-time cell analyzer (RTCA) system (ACEA Biosciences, San Diego, CA, United States) as described previously ([Vlachodimou et al., 2019]; [Sijben et al., 2021a], [2021b]). In short, cells are cultured in medium on gold-plated electrodes in microwell E-plates. Per well impedance is continuously measured at 10 kHz and is converted to the unitless parameter Cell Index (CI) by the following formula: CI=(Zi−Z0)Ω/15Ω where Zi is the impedance at any given time point and Z0 is the baseline impedance measured at the start of each experiment ([Kho et al., 2015]).
# Assays were performed at 37°C and 5% CO2 in 96-well PET E-plates in a total volume of 100 µl per well. Prior to cell seeding, the baseline impedance (Z0) was measured in the recording station in 40 µl (two compound additions) or 45 µl (one compound addition) medium in the presence (+) or absence (−) of 1 μg/ml dox. […]
# On the day of the experiment, JumpIn-EAAT cells grown to 70–80% confluence were trypsinized (0.25% trypsin in PBS/EDTA), counted and seeded in the E-plate in a volume of 50 μl at 60,000 cells/well. […] Cell growth was recorded overnight for 22 h. […] After stimulation the impedance was measured for at least 2 h. […]
# Experimental data was recorded using RTCA Software v2.0 or v2.1.1 (ACEA Biosciences). […]
# EAAT1-3 = conditions: read-out: Steady-state affinities (Km), ref Arriza et al., 1994, Tzingounis and Wadiche, 2007; cited from earlier work
structure (smiles),measurement,setting,value
"N[C@@H](CCC(=O)O)C(=O)O [L-glutamate, L-glutamic acid monosodium salt monohydrate]",Response in dox-induced vs non-induced cells,[1],not significant
same,Km,EAAT1-3,~20 µM

# From article PMC9169222, “Impedance-Based Phenotypic Readout of Transporter Function: A Case for Glutamate Transporters” (Frontiers in Pharmacology, 2022)
